Source: paper PMC9150124, “Design of a Potent, Selective, and Brain-Penetrant Inhibitor of Wnt-Deactivating Enzyme Notum by Optimization of a Crystallographic Fragment Hit” (Journal of Medicinal Chemistry, 2022)

Assays:
Test in all cases: SelectScreen kinase profiling, SSBK ZLyte SP Technology
Format in all cases: biochemical
[1] = target: kinase named in conditions (Homo sapiens, UniProt O76039); settings: CDKL5, 10 μM
Experimental: (§1) Kinase selectivity screening was performed by Thermo Fisher Scientific (Paisley, U.K.) in their SelectScreen Biochemical Kinase Profiling Service. Assay information and data are presented in the Supporting Information.
(§2) Kinase selectivity screening was performed by ThermoFisher Scientific (Paisley, U.K.) in their SelectScreenTM
(§3) Biochemical Kinase Profiling service .

[2] = target: kinase named in conditions (Homo sapiens, UniProt P45983); settings: MAPK8 (JNK1), 10 μM
Experimental: as §1, §2, §3

[3] = target: kinase named in conditions (Homo sapiens, UniProt Q9BUB5); settings: MKNK1 (MNK1), 10 μM
Experimental: as §1, §2, §3

[4] = target: kinase named in conditions (Homo sapiens, UniProt Q9Y4K4); settings: MAP4K5 (KHS1), 10 μM
Experimental: as §1, §2, §3

[5] = target: kinase named in conditions (Homo sapiens, UniProt Q07002); settings: CDK18/cyclin Y, 10 μM
Experimental: as §1, §2, §3

[6] = target: kinase named in conditions (Homo sapiens, UniProt Q16512); settings: PKN1 (PRK1), 10 μM
Experimental: as §1, §2, §3

[7] = target: kinase named in conditions (Homo sapiens, UniProt Q9UQM7); settings: CAMK2A (CaMKII alpha), 10 μM
Experimental: as §1, §2, §3

[8] = target: kinase named in conditions (Homo sapiens, UniProt P11362); settings: FGFR1, 10 μM
Experimental: as §1, §2, §3

[9] = target: kinase named in conditions (Homo sapiens, UniProt P52333); settings: JAK3, 10 μM
Experimental: as §1, §2, §3

[10] = target: kinase named in conditions (Homo sapiens, UniProt P29322); settings: EPHA8, 10 μM
Experimental: as §1, §2, §3

[11] = target: kinase named in conditions (Homo sapiens, UniProt P23458); settings: JAK1, 10 μM
Experimental: as §1, §2, §3

[12] = target: kinase named in conditions (Homo sapiens, UniProt P36896); settings: ACVR1B (ALK4), 10 μM
Experimental: as §1, §2, §3

[13] = target: kinase named in conditions (Homo sapiens, UniProt P22455); settings: FGFR4, 10 μM
Experimental: as §1, §2, §3

[14] = target: kinase named in conditions (Homo sapiens, UniProt O94806); settings: PRKCN (PKD3), 10 μM
Experimental: as §1, §2, §3

[15] = target: kinase named in conditions (Homo sapiens, UniProt P35968); settings: KDR (VEGFR2), 10 μM
Experimental: as §1, §2, §3

[16] = target: kinase named in conditions (Homo sapiens, UniProt P05129); settings: PRKCG (PKC gamma), 10 μM
Experimental: as §1, §2, §3

[17] = target: kinase named in conditions (Homo sapiens, UniProt Q13882); settings: PTK6 (Brk), 10 μM
Experimental: as §1, §2, §3

[18] = target: kinase named in conditions (Homo sapiens, UniProt Q8WTQ7); settings: GRK7, 10 μM
Experimental: as §1, §2, §3

[19] = target: kinase named in conditions (Homo sapiens, UniProt P05771); settings: PRKCB1 (PKC beta I), 10 μM
Experimental: as §1, §2, §3

[20] = target: kinase named in conditions (Homo sapiens, UniProt P42684); settings: ABL2 (Arg), 10 μM
Experimental: as §1, §2, §3

[21] = target: kinase named in conditions (Homo sapiens, UniProt P54646)
Experimental: as §1, §2, §3

[22] = target: kinase named in conditions (Homo sapiens, UniProt Q16566); settings: CAMK4 (CaMKIV), 10 μM
Experimental: as §1, §2, §3

[23] = target: kinase named in conditions (Homo sapiens, UniProt P00519, F317L); settings: ABL1 F317L, 10 μM
Experimental: as §1, §2, §3

[24] = target: kinase named in conditions (Homo sapiens, UniProt Q9P0L2); settings: MARK1 (MARK), 10 μM
Experimental: as §1, §2, §3

[25] = target: kinase named in conditions (Homo sapiens, UniProt Q13464); settings: ROCK1, 10 μM
Experimental: as §1, §2, §3

[26] = target: kinase named in conditions (Homo sapiens, UniProt P09769); settings: FGR, 10 μM
Experimental: as §1, §2, §3

[27] = target: kinase named in conditions (Homo sapiens, UniProt Q56UN5); settings: MAP3K19 (YSK4), 10 μM
Experimental: as §1, §2, §3

[28] = target: kinase named in conditions (Homo sapiens, UniProt Q13131)
Experimental: as §1, §2, §3

[29] = target: kinase named in conditions (Homo sapiens, UniProt Q16539); settings: 10 μM
Experimental: as §1, §2, §3

[30] = target: kinase named in conditions (Homo sapiens, UniProt Q02763, Y897S); settings: TEK (TIE2) Y897S, 10 μM
Experimental: as §1, §2, §3

[31] = target: kinase named in conditions (Homo sapiens, UniProt P78368); settings: CSNK1G2 (CK1 gamma 2), 10 μM
Experimental: as §1, §2, §3

[32] = target: kinase named in conditions (Homo sapiens, UniProt P10721, T670I); settings: KIT T670I, 10 μM
Experimental: as §1, §2, §3

[33] = target: kinase named in conditions (Homo sapiens, UniProt P24723); settings: PRKCH (PKC eta), 10 μM
Experimental: as §1, §2, §3

FC(F)(F)c1c(Cl)ccc(-n2ccnn2)c1Cl [8l, 1-(2,4-Dichloro-3-(trifluoromethyl)phenyl)-1H-1,2,3-triazole]
inhibition at 10 µM [1]: -5%
inhibition at 10 µM [2]: 6%
inhibition at 10 µM [3]: 0%
inhibition at 10 µM [4]: -10%
inhibition at 10 µM [5]: 4%
inhibition at 10 µM [6]: -1%
inhibition at 10 µM [7]: -2%
inhibition at 10 µM [8]: -3%
inhibition at 10 µM [9]: 7%
inhibition at 10 µM [10]: 2%
inhibition at 10 µM [11]: 2%
inhibition at 10 µM [12]: -12%
inhibition at 10 µM [13]: 2%
inhibition at 10 µM [14]: 6%
inhibition at 10 µM [15]: 14%
inhibition at 10 µM [16]: 12%
inhibition at 10 µM [17]: 6%
inhibition at 10 µM [18]: 0%
inhibition at 10 µM [19]: 0%
inhibition at 10 µM [20]: 10%
inhibition at 10 µM ([21]; AMPK (A2/B1/G2), 10 μM): -2%
inhibition at 10 µM ([21]; AMPK (A2/B1/G3), 10 μM): 2%
inhibition at 10 µM ([21]; AMPK (A2/B2/G3), 10 μM): 3%
inhibition at 10 µM ([21]; AMPK A2/B1/G1, 10 μM): 14%
inhibition at 10 µM [22]: 15%
inhibition at 10 µM [23]: 16%
inhibition at 10 µM [24]: -1%
inhibition at 10 µM [25]: 8%
inhibition at 10 µM [26]: 4%
inhibition at 10 µM [27]: -5%
inhibition at 10 µM ([28]; AMPK (A1/B2/G2), 10 μM): 6%
inhibition at 10 µM ([28]; AMPK (A1/B2/G3), 10 μM): 6%
inhibition at 10 µM ([28]; AMPK A1/B1/G1, 10 μM): 14%
inhibition at 10 µM ([29]; MAPK14 (p38 alpha) Direct): -3%
inhibition at 10 µM ([29]; MAPK14 (p38 alpha)): -1%
inhibition at 10 µM [30]: 2%
inhibition at 10 µM [31]: -2%
inhibition at 10 µM [32]: 10%
inhibition at 10 µM [33]: -1%
